Test systems include A498; ACHN; BT-549; COLO 205; DU-145; HCT-116; HCT-15; HOP-92; KM12; MCF7; NCI-H23; NCI-H460; NCI-H522; OVCAR-4; PC-3; SK-MEL-5; SNB-75; SW-620; T47D; UACC-257.
What all share (assay): NCI-60 cell line screen, 48 h

Each structure is given as a SMILES string. Where “and” joins values, the source holds several entries; their conditions need not be identical. Equal entries are not always repeated.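 Cultured in 96-well plates, cells were exposed to test compound for 48 hours across five concentrations. GI50 is the concentration that inhibits growth by half.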 Calls of active or inactive are those of the source. No stated cut-off is given here; in the data, active = GI50 up to about 1.1 µM and inactive = higher.

As to `NS(=O)(=O)c1ccc(/N=N/c2c(O)c(C(=O)O)cc3ccccc23)cc1`, the GI50 was > 100 µM (inactive) in the experiment on A498; > 100 µM (inactive) with ACHN; > 100 µM (inactive) in the experiment on BT-549; > 54.5 µM (inactive) in the experiment on COLO 205; > 100 µM (inactive) in the experiment with DU-145; > 100 µM (inactive) with HCT-116. Further, the GI50 in the experiment with HCT-15 was greater than 100 µM; with HOP-92, > 100 µM (inactive); in the experiment on KM12 it was > 75.7 µM (inactive); in the experiment with MCF7, > 90.2 µM (inactive); in the experiment with NCI-H23 it was > 100 µM (inactive); in the experiment on NCI-H460, > 100 µM (inactive). The GI50 is > 76.7 µM (inactive) in the experiment with NCI-H522; > 100 µM (inactive) in the experiment with OVCAR-4; > 100 µM (inactive) in the experiment on PC-3; 53.8 µM (inactive) in the experiment with SK-MEL-5; > 100 µM (inactive) in the experiment with SNB-75; > 92.3 µM (inactive) in the experiment with SW-620. In addition, the GI50 with T47D and in the experiment with UACC-257 was > 100 µM (inactive) each time.
Turning to `CC(C)(C)c1cc(C(C)(C)C)c2sc(=S)oc2c1O`, the GI50 was 12.9 µM (inactive) with A498; 8.53 µM (inactive) in the experiment with ACHN; 8.51 µM (inactive) with BT-549; 14.5 µM (inactive) with COLO 205; 11.7 µM (inactive) in the experiment with DU-145; 6.25 µM (inactive) in the experiment with HCT-116. Moreover, the GI50 in the experiment with HCT-15 is 4.98 µM; in the experiment with HOP-92, 14.1 µM (inactive); in the experiment on KM12, 4.79 µM (inactive); in the experiment on MCF7, 6.79 µM (inactive); with NCI-H23, 5.37 µM (inactive); in the experiment with NCI-H460 it was 6.1 µM (inactive). Moreover, the GI50 is 5.9 µM (inactive) with NCI-H522; 11.7 µM (inactive) with OVCAR-4; 4.29 µM (inactive) with PC-3; 8.17 µM (inactive) in the experiment with SK-MEL-5; 6.49 µM (inactive) in the experiment on SNB-75; 9.1 µM (inactive) with SW-620. The GI50 in the experiment on T47D was 5.19 µM (inactive); with UACC-257 it was 14.3 µM (inactive).
As to `COc1ccc2c(c1)/C(=C\c1c(-c3ccccc3)nc3n1CCS3)C(=O)N2`, the GI50 in the experiment with A498 was 5.05 µM (inactive); in the experiment on ACHN, 11.5 µM (inactive); in the experiment on BT-549, 9.51 µM (inactive); with COLO 205 it was 3.27 µM (inactive); in the experiment on DU-145, 16.3 µM (inactive); in the experiment on HCT-116 it was 5.01 µM (inactive). Further, the GI50 in the experiment on HCT-15 is 4.38 µM; in the experiment with HOP-92, 12.9 µM (inactive); with KM12 it was 3.33 µM (inactive); in the experiment with MCF7, 4.62 µM (inactive); in the experiment with NCI-H23 it was 11.5 µM (inactive); with NCI-H460, 3.52 µM (inactive). Moreover, the GI50 was 4.63 µM (inactive) with NCI-H522; 2.97 µM (inactive) with PC-3; 5.08 µM (inactive) with SK-MEL-5; 12.8 µM (inactive) in the experiment with SNB-75; 2.99 µM (inactive) in the experiment on SW-620; 7.5 µM (inactive) with T47D. In addition, the GI50 in the experiment on UACC-257 is 12.2 µM (inactive).
As to `O=C(O)/C=C/c1ccc(OS(=O)(=O)O)cc1`, the GI50 in the experiment with A498, in the experiment on ACHN, with BT-549, with COLO 205, in the experiment with DU-145 and with HCT-116 was > 100 µM (inactive) each time. Also, the GI50 with HCT-15 is greater than 100 µM; in the experiment with HOP-92 it was > 100 µM (inactive); in the experiment with KM12, > 100 µM (inactive); in the experiment on MCF7, > 100 µM (inactive); in the experiment with NCI-H23 it was > 100 µM (inactive); in the experiment on NCI-H460 it was > 100 µM (inactive). For the same compound, the GI50 with NCI-H522, in the experiment with OVCAR-4, with PC-3, in the experiment with SK-MEL-5, in the experiment on SNB-75 and in the experiment with SW-620 was > 100 µM (inactive) each time. In addition, the GI50 in the experiment with T47D and in the experiment with UACC-257 was > 100 µM (inactive) in each case.
With `Cc1cn2c(/C=C3/C(=O)Nc4ccccc43)c(C)nc2s1`, the GI50 was 1.33 µM (inactive) in the experiment on A498; 6.07 µM (inactive) in the experiment on ACHN; 3.95 µM (inactive) with BT-549; 0.433 µM (active) in the experiment on COLO 205; 3.89 µM (inactive) in the experiment on DU-145; 0.867 µM (active) in the experiment with HCT-116. Also, the GI50 in the experiment on HCT-15 was 0.679 µM; in the experiment on HOP-92, 14.4 µM (inactive); with KM12, 0.261 µM (active); with MCF7 it was 0.547 µM (active); with NCI-H23, 4.19 µM (inactive); in the experiment on NCI-H460, 0.653 µM (active). For the same compound, the GI50 is 1.32 µM (inactive) in the experiment on NCI-H522; 1.3 µM (inactive) in the experiment with PC-3; 0.516 µM (active) in the experiment on SK-MEL-5; 3.79 µM (inactive) in the experiment on SNB-75; 0.504 µM (active) with SW-620; 0.665 µM (active) in the experiment on T47D. Further, the GI50 in the experiment with UACC-257 was 2.78 µM (inactive).
In the case of `C=C(CCC/C(C)=C/C=C/[C@H](C)CCCc1ccoc1)C[C@@H]1OC(=O)[C@H](C)[C@@H]1O`, the GI50 was 8.53 µM (inactive) in the experiment with A498; 9.18 µM (inactive) in the experiment on ACHN; 8.69 µM (inactive) with BT-549; 12.6 µM (inactive) in the experiment on COLO 205; 8.55 µM (inactive) in the experiment with DU-145; 11.5 µM (inactive) in the experiment with HCT-116. The GI50 in the experiment with HCT-15 is 11.4 µM; in the experiment with HOP-92 it was 8.95 µM (inactive); with KM12, 9.79 µM (inactive); in the experiment with MCF7, 10.8 µM (inactive); in the experiment on NCI-H23, 8.69 µM (inactive); with NCI-H460, 12.5 µM (inactive). In addition, the GI50 in the experiment on NCI-H522 is 9.02 µM (inactive); with OVCAR-4, 4.73 µM (inactive); with PC-3, 8.65 µM (inactive); in the experiment with SK-MEL-5 it was 8.04 µM (inactive); with SNB-75, 8.75 µM (inactive); in the experiment with SW-620 it was 12.8 µM (inactive). Further, the GI50 with T47D is 6.97 µM (inactive); with UACC-257, 7.18 µM (inactive).
As for `CNC(=O)CCCNC(=O)CCCC(=O)OC`, the GI50 in the experiment on A498, in the experiment with ACHN, with BT-549, in the experiment with COLO 205, in the experiment with DU-145 and in the experiment with HCT-116 was > 100 µM (inactive) in each case. Further, the GI50 in the experiment on HCT-15 is greater than 100 µM; with HOP-92, > 100 µM (inactive); with KM12 it was > 100 µM (inactive); with MCF7, > 100 µM (inactive); in the experiment with NCI-H23 it was > 100 µM (inactive); in the experiment on NCI-H460 it was > 100 µM (inactive). Further, the GI50 in the experiment on NCI-H522, in the experiment on PC-3, with SK-MEL-5, in the experiment with SNB-75, in the experiment with SW-620 and with T47D was > 100 µM (inactive) in each case. For the same compound, the GI50 with UACC-257 was > 100 µM (inactive).
Take `Cc1nc(Cl)c(Cl)c(Cl)n1`: the GI50 is 2.32 µM (inactive) in the experiment on A498; 0.324 µM (active) with ACHN; 0.199 µM (active) in the experiment with BT-549; 0.434 µM (active) in the experiment with COLO 205; 2.81 µM (inactive) with DU-145; 0.118 µM (active) with HCT-116. For the same compound, the GI50 in the experiment on HCT-15 was 0.558 µM; in the experiment with HOP-92, 0.238 µM (active); in the experiment on KM12, 0.405 µM (active); in the experiment with MCF7, 0.575 µM (active); in the experiment with NCI-H23 it was 0.526 µM (active); in the experiment on NCI-H460, 1.38 µM (inactive). Also, the GI50 in the experiment on NCI-H522 was 1.79 µM (inactive); with OVCAR-4 it was 0.0331 µM (active); in the experiment on PC-3 it was 0.348 µM (active); in the experiment on SK-MEL-5 it was 0.705 µM (active); in the experiment on SNB-75 it was 1.18 µM (inactive); in the experiment with SW-620, 0.0471 µM (active). In addition, the GI50 with T47D is 0.596 µM (active); in the experiment on UACC-257 it was 0.687 µM (active).
On to `N/C(=N/c1ccc(O)cc1)S(=O)O`, for which the GI50 in the experiment on A498, in the experiment with ACHN, in the experiment with BT-549, in the experiment with COLO 205, with DU-145 and in the experiment on HCT-116 was > 100 µM (inactive) throughout. The GI50 was greater than 100 µM in the experiment with HCT-15; > 100 µM (inactive) in the experiment on HOP-92; > 100 µM (inactive) with KM12; > 100 µM (inactive) in the experiment on MCF7; > 100 µM (inactive) with NCI-H23; > 100 µM (inactive) with NCI-H522. Besides, the GI50 in the experiment on OVCAR-4, in the experiment with PC-3, in the experiment with SK-MEL-5, in the experiment on SNB-75, with SW-620 and in the experiment on T47D was > 100 µM (inactive) each time. The GI50 in the experiment with UACC-257 is > 100 µM (inactive).
For the compound `CC(=O)OC1OC(C2c3cccc(O)c3C(=O)c3c(O)cc(CO)cc32)C(O)C(O)C1O` (stereo not drawn), the GI50 is 6.34 µM (inactive) in the experiment on A498; 4.66 µM (inactive) and 5.7 µM (inactive) with BT-549; 4.55 µM (inactive) and 4.88 µM (inactive) in the experiment on DU-145; 3.01 µM (inactive) and 2.92 µM (inactive) in the experiment with HCT-116; 3.37 µM and 3.51 µM with HCT-15; 3.1 µM (inactive) in the experiment with HOP-92. Besides, the GI50 with MCF7 was 5.04 µM (inactive) and 4.75 µM (inactive); with NCI-H23, 3.08 µM (inactive) and 3.33 µM (inactive); with NCI-H460, 3.43 µM (inactive) and 3.48 µM (inactive); in the experiment with NCI-H522 it was 4.51 µM (inactive) and 2.91 µM (inactive); with OVCAR-4, 5.38 µM (inactive) and 6.61 µM (inactive); with PC-3 it was 3.01 µM (inactive) and 2.32 µM (inactive). For the same compound, the GI50 in the experiment on SK-MEL-5 is 1.53 µM (inactive) and 1.68 µM (inactive); in the experiment with SNB-75, 3.27 µM (inactive) and 5.27 µM (inactive); in the experiment with SW-620, 3.66 µM (inactive) and 3.03 µM (inactive); in the experiment on T47D it was 1.41 µM (inactive) and 1.73 µM (inactive); with UACC-257, 6.47 µM (inactive) and 7.45 µM (inactive).
